How the values were obtained:
[1] = tested on: kochia (Kochia scoparia); test: Test A postemergence, kochia; assay type: in vivo; settings: Bassia scoparia, post-emergence, 240 h, 0 to 100 scale (0 no effect, 100 complete control), read-out: Plant response rating, Kochia; for pest or weed control at 125 g/ha: 125 g ai/ha
[2] = tested on: barnyardgrass (Echinochloa crus-galli); test: Test A postemergence, barnyardgrass; assay type: in vivo; settings: Echinochloa crus-galli, post-emergence, 240 h, 0 to 100 scale (0 no effect, 100 complete control), read-out: Plant response rating, Barnyardgrass; for pest or weed control at 125 g/ha: 125 g ai/ha
[3] = tested on: ryegrass, Italian (Italian ryegrass, Lolium multiflorum); test: Test A preemergence, ryegrass, Italian; assay type: in vivo; settings: Lolium multiflorum, pre-emergence, 240 h, 0 to 100 scale (0 no effect, 100 complete control), read-out: Plant response rating, Ryegrass, Italian; for pest or weed control at 125 g/ha: 125 g ai/ha
[4] = tested on: galium (catchweed bedstraw, Galium aparine); test: Test A postemergence, galium; assay type: in vivo; settings: Galium, post-emergence, 240 h, 0 to 100 scale (0 no effect, 100 complete control), read-out: Plant response rating, Galium; for pest or weed control at 125 g/ha: 125 g ai/ha
[5] = tested on: barnyardgrass (Echinochloa crus-galli); test: Test A preemergence, barnyardgrass; assay type: in vivo; settings: Echinochloa crus-galli, pre-emergence, 240 h, 0 to 100 scale (0 no effect, 100 complete control), read-out: Plant response rating, Barnyardgrass; for pest or weed control at 125 g/ha: 125 g ai/ha
[6] = tested on: blackgrass (Alopecurus myosuroides); test: Test A postemergence, blackgrass; assay type: in vivo; settings: Alopecurus myosuroides, post-emergence, 240 h, 0 to 100 scale (0 no effect, 100 complete control), read-out: Plant response rating, Blackgrass; for pest or weed control at 125 g/ha: 125 g ai/ha
[7] = tested on: pigweed (Amaranthus retroflexus); test: Test A postemergence, pigweed; assay type: in vivo; settings: Amaranthus retroflexus, post-emergence, 240 h, 0 to 100 scale (0 no effect, 100 complete control), read-out: Plant response rating, Pigweed; for pest or weed control at 125 g/ha: 125 g ai/ha
[8] = tested on: ragweed (common ragweed, Ambrosia elatior); test: Test A postemergence, ragweed; assay type: in vivo; settings: Ambrosia artemisiifolia, post-emergence, 240 h, 0 to 100 scale (0 no effect, 100 complete control), read-out: Plant response rating, Ragweed; for pest or weed control at 125 g/ha: 125 g ai/ha
[9] = tested on: corn (Zea mays); test: Test A postemergence, corn; assay type: in vivo; settings: Zea mays, post-emergence, 240 h, 0 to 100 scale (0 no effect, 100 complete control); for Corn plant response rating (crop injury, 0 = no effect, 100 = complete kill) at 125 g/ha: 125 g ai/ha
[10] = tested on: ragweed (common ragweed, Ambrosia elatior); test: Test A preemergence, ragweed; assay type: in vivo; settings: Ambrosia artemisiifolia, pre-emergence, 240 h, 0 to 100 scale (0 no effect, 100 complete control), read-out: Plant response rating, Ragweed; for pest or weed control at 125 g/ha: 125 g ai/ha
[11] = tested on: rice (Oryza sativa); test: Test B flooded paddy test, rice; settings: Oryza sativa, read-out: Plant response rating, Rice (0 to 100 scale, 0 is no effect, 100 is complete control)
[12] = tested on: ducksalad (Heteranthera limosa); test: Test B flooded paddy test, ducksalad; settings: Heteranthera limosa, read-out: Plant response rating, Ducksalad (0 to 100 scale, 0 is no effect, 100 is complete control)
[13] = tested on: wheat (Triticum aestivum); test: Test A postemergence, wheat; assay type: in vivo; settings: Triticum aestivum, post-emergence, 240 h, 0 to 100 scale (0 no effect, 100 complete control), read-out: Plant response rating, Wheat; for plant injury at 125 g/ha: 125 g ai/ha
[14] = tested on: ryegrass, Italian (Italian ryegrass, Lolium multiflorum); test: Test A postemergence, ryegrass, Italian; assay type: in vivo; settings: Lolium multiflorum, post-emergence, 240 h, 0 to 100 scale (0 no effect, 100 complete control), read-out: Plant response rating, Ryegrass, Italian; for pest or weed control at 125 g/ha: 125 g ai/ha
[15] = tested on: kochia (Kochia scoparia); test: Test A preemergence, kochia; assay type: in vivo; settings: Bassia scoparia, pre-emergence, 240 h, 0 to 100 scale (0 no effect, 100 complete control), read-out: Plant response rating, Kochia; for pest or weed control at 125 g/ha: 125 g ai/ha
[16] = tested on: pigweed (Amaranthus retroflexus); test: Test A preemergence, pigweed; assay type: in vivo; settings: Amaranthus retroflexus, pre-emergence, 240 h, 0 to 100 scale (0 no effect, 100 complete control), read-out: Plant response rating, Pigweed; for pest or weed control at 125 g/ha: 125 g ai/ha
[17] = tested on: barnyardgrass (Echinochloa crus-galli); test: Test B flooded paddy test, barnyardgrass; settings: Echinochloa crus-galli, read-out: Plant response rating, Barnyardgrass (0 to 100 scale, 0 is no effect, 100 is complete control)

Compound | pest or weed control at 125 g/ha [1] [%] | pest or weed control at 125 g/ha [2] [%] | pest or weed control at 125 g/ha [3] [%] | pest or weed control at 125 g/ha [4] [%] | pest or weed control at 125 g/ha [5] [%] | pest or weed control at 125 g/ha [6] [%] | pest or weed control at 125 g/ha [7] [%] | pest or weed control at 125 g/ha [8] [%] | Corn plant response rating (crop injury, 0 = no effect, 100 = complete kill) at 125 g/ha [9] [%] | pest or weed control at 125 g/ha [10] [%] | plant injury at 250 g/ha [11] [%] | pest or weed control at 250 g/ha [12] [%] | plant injury at 125 g/ha [13] [%] | pest or weed control at 125 g/ha [14] [%] | pest or weed control at 125 g/ha [15] [%] | pest or weed control at 125 g/ha [16] [%] | pest or weed control at 250 g/ha [17] [%] | other results
OC1(CCC(F)(F)F)CCc2cccc(Oc3ncc(Cl)cn3)c21 (centres unmarked) [Compound 14, 7-[(5-Chloro-2-pyrimidinyl)oxy]-2,3-dihydro-1-(3,3,3-trifluoropropyl)-1H-inden-1-ol] | 80 | 30 | 10 | 50 | 20 | 40 | 50 | 70 | 10 | 40 | 0 | 40 | 30 | 20 | 50 | 100 | 0 | pest or weed control at 500 g/ha ([1]; 500 g ai/ha): 80%; pest or weed control at 500 g/ha ([2]; 500 g ai/ha): 80%; pest or weed control at 500 g/ha ([3]; 500 g ai/ha): 60%; pest or weed control at 500 g/ha ([4]; 500 g ai/ha): 90%; pest or weed control at 500 g/ha ([5]; 500 g ai/ha): 90%; pest or weed control at 500 g/ha ([6]; 500 g ai/ha): 90%; pest or weed control at 500 g/ha ([7]; 500 g ai/ha): 100%; pest or weed control at 500 g/ha ([8]; 500 g ai/ha): 90%; Corn plant response rating (crop injury, 0 = no effect, 100 = complete kill) at 500 g/ha ([9]; 500 g ai/ha): 40%; pest or weed control at 500 g/ha ([10]; 500 g ai/ha): 70%; plant injury at 500 g/ha ([13]; 500 g ai/ha): 60%; pest or weed control at 500 g/ha ([14]; 500 g ai/ha): 90%; pest or weed control at 500 g/ha ([15]; 500 g ai/ha): 100%; pest or weed control at 500 g/ha ([16]; 500 g ai/ha): 100%
O=C1NC(CCCC(F)(F)F)c2c(Oc3ncc(Cl)cn3)cccc21 (centres unmarked) [Compound 13, 4-[(5-Chloro-2-pyrimidinyl)oxy]-2,3-dihydro-3-(4,4,4-trifluorobutyl)-1H-isoindol-1-one] | 0 | 0 | 0 | 0 | 0 | 0 | 10 | 0 | 0 | 0 | 0 | 0 | 0 | 0 | 0 | 0 | 0 | pest or weed control at 31 g/ha ([1]; 31 g ai/ha): 0%; pest or weed control at 31 g/ha ([2]; 31 g ai/ha): 0%; pest or weed control at 31 g/ha ([3]; 31 g ai/ha): 0%; pest or weed control at 31 g/ha ([4]; 31 g ai/ha): 0%; pest or weed control at 31 g/ha ([5]; 31 g ai/ha): 0%; pest or weed control at 31 g/ha ([6]; 31 g ai/ha): 0%; pest or weed control at 31 g/ha ([7]; 31 g ai/ha): 0%; pest or weed control at 31 g/ha ([8]; 31 g ai/ha): 0%; Corn plant response rating (crop injury, 0 = no effect, 100 = complete kill) at 31 g/ha ([9]; 31 g ai/ha): 0%; pest or weed control at 31 g/ha ([10]; 31 g ai/ha): 0%; plant injury at 31 g/ha ([13]; 31 g ai/ha): 0%; pest or weed control at 31 g/ha ([14]; 31 g ai/ha): 0%; pest or weed control at 31 g/ha ([15]; 31 g ai/ha): 0%; pest or weed control at 31 g/ha ([16]; 31 g ai/ha): 0%

Source: US11427549B2, “Pyrimidinyloxy benzo-fused compounds as herbicides” (FMC Corporation, priority 2017, dated 2022)
